Reference: patent US12043600B2, “Microbiocidal compounds” (SYNGENTA CROP PROTECTION AG, priority 2018, dated 2024)
Where two headings read alike, the source gives them in different places.

Experiments:
[1] = system: Mycosphaerella graminicola (Septoria tritici); assay: Mycosphaerella graminicola (Septoria tritici)/Liquid Culture (Septoria Blotch); type: cell-based; settings: Zymoseptoria tritici; 20 ppm; liquid culture; compared to untreated control
In short: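 Results given as % disease control: test compound in DMSO was placed in wells first, then potato dextrose broth carrying cryostored fungal conidia was added.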

Pyrenophora teres = assay: Pyrenophora teres/Barley/Leaf Disc Preventative (Net Blotch); type: in vivo; settings: foliar, 200 ppm, barley leaf disc preventative, compared to untreated control, read-out: control of Pyrenophora teres
Description: Barley leaf segments cv. Hasso are placed on agar in a multiwell plate (24-well format) and sprayed with the formulated test compound diluted in water. The leaf segments are inoculated with a spore suspension of the fungus 2 days after application. […] The data are presented as the percentage of disease control of each compound for the biological tests against G. lagenarium (Example B3), P. recondita preventative (Example B13), P. teres (Example B15) and M. graminicola (Example B19) as described above. The testing rates of each biological test is specifically described in table C1 below.

[2] = system: Mycosphaerella arachidis (Cercospora arachidicola); assay: Mycosphaerella arachidis (Cercospora arachidicola)/Liquid Culture (Early Leaf Spot); type: cell-based; settings: liquid culture, compared to untreated control
In short: (§1)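 Growth inhibition read in liquid culture: spores from frozen stocks, suspended in potato dextrose broth, meet DMSO-dissolved compound placed beforehand in the plate.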

Plasmopara viticola = assay: whole plant or invertebrate; type: in vivo; settings: foliar, read-out: control of Plasmopara viticola
[3] = system: Phaeosphaeria nodorum (Septoria nodorum); assay: Phaeosphaeria nodorum (Septoria nodorum)/Wheat/Leaf Disc Preventative (Glume Blotch); type: in vivo; settings: Parastagonospora nodorum, foliar, wheat leaf disc preventative, compared to untreated control
In short: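 Preventative test: compound spray first, then spore inoculation after 2 days on cv. Kanzler wheat leaf segments. Incubation in a climate cabinet at 20 °C and 75% rh under a 12 h light/12 h dark cycle. Activity rated as % control relative to untreated discs at 5–7 days post-application.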

[4] = system: Magnaporthe grisea (Pyricularia oryzae); assay: whole plant or invertebrate; type: in vivo; settings: foliar, read-out: control of Magnaporthe grisea
Phytophthora infestans = assay: whole plant or invertebrate; type: in vivo; settings: in Solanum lycopersicum, foliar, read-out: control of Phytophthora infestans
[5] = system: Monographella nivalis (Microdochium nivale); assay: Monographella nivalis (Microdochium nivale)/Liquid Culture (Foot Rot Cereals); type: cell-based; settings: liquid culture, compared to untreated control
In short: as §1

[6] = system: Puccinia recondita f. sp. tritici; assay: Puccinia recondita f. sp. tritici/Wheat/Leaf Disc Preventative (Brown Rust); type: in vivo; settings: foliar, 200 ppm, wheat leaf disc preventative, compared to untreated control, read-out: control of Puccinia recondita f. sp. tritici
Alternaria solani = assay: Alternaria solani/Tomato/Leaf Disc (Early Blight); type: in vivo; settings: foliar, tomato leaf disc, compared to untreated control
Procedure: Tomato leaf disks cv. Baby are placed on agar in multiwell plates (24-well format) and sprayed with the formulated test compound diluted in water. The leaf disks are inoculated with a spore suspension of the fungus 2 days after application. The inoculated leaf disks are incubated at 23° C./21° C. (day/night) and 80% rh (relative humidity) under a light regime of 12/12 h (light/dark) in a climate cabinet and the activity of a compound is assessed as percent disease control compared to untreated when an appropriate level of disease damage appears on untreated check disk leaf disks (5-7 days after application).

[7] = system: Glomerella lagenarium (Colletotrichum lagenarium); assay: Glomerella lagenarium (Colletotrichum lagenarium)/Liquid Culture (Anthracnose); type: cell-based; settings: Colletotrichum orbiculare, liquid culture, compared to untreated control
[8] = system: Blumeria graminis f. sp. tritici (Erysiphe graminis f. sp. tritici); assay: Blumeria graminis f. sp. tritici/Wheat/Leaf Disc Preventative (Powdery Mildew on Wheat); type: in vivo; settings: foliar, wheat leaf disc preventative, compared to untreated control
In short: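 Preventative leaf-disc test: percent disease control versus untreated leaf segments read 6-8 days post-application. Compound spray applied to wheat cv. Kanzler segments on agar one day before shaking infected plants over them; incubation at 20° C and 60% rh, 24 h darkness then 12 h light/12 h dark cycles.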

[9] = system: Botryotinia fuckeliana (Botrytis cinerea); assay: Botryotinia fuckeliana (Botrytis cinerea)/Liquid Culture (Gray Mould); type: cell-based; settings: liquid culture, compared to untreated control
Procedure: Conidia of the fungus from cryogenic storage are directly mixed into nutrient broth (Vogels broth). After placing a (DMSO) solution of test compound into a microtiter plate (96-well format), the nutrient broth containing the fungal spores is added.

[10] = system: Puccinia recondita f. sp. tritici; assay: Puccinia recondita f. sp. tritici/Wheat/Leaf Disc Curative (Brown Rust); type: in vivo; settings: foliar, wheat leaf disc curative, compared to untreated control
In short: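 Formulated compound, diluted in water, is applied to inoculated wheat cv. Kanzler leaf segments on agar one day post-inoculation (pre-incubation dark, 19° C, 75% rh). After 6-8 days at 19° C, 75% rh and 12 h/12 h light, activity is rated as percent disease control relative to untreated segments.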

Phakopsora pachyrhizi = assay: Phakopsora pachyrhizi/Soybean/Preventative (Soybean Rust); type: in vivo; settings: 288 h
[11] = foliar, soybean leaf disc preventative, compared to untreated control, read-out: control of Phakopsora pachyrhizi

Row | Structure (SMILES) | inhibition of growth at 20 ppm [1] [%] | pest or weed control at 200 ppm (Pyrenophora teres) [%] | melting point [°C] | inhibition of growth at 20 ppm [2] [%] | pest or weed control at 200 ppm (Plasmopara viticola) [%] | pest or weed control at 200 ppm [3] [%] | pest or weed control at 200 ppm [4] [%] | pest or weed control at 200 ppm (Phytophthora infestans) [%] | inhibition of growth at 20 ppm [5] [%] | pest or weed control at 200 ppm [6] [%] | pest or weed control at 200 ppm (Alternaria solani) [%] | inhibition of growth at 20 ppm [7] [%] | pest or weed control at 200 ppm [8] [%] | inhibition of growth at 20 ppm [9] [%] | pest or weed control at 200 ppm [10] [%] | pest or weed control at 200 ppm (Phakopsora pachyrhizi; [11]) [%] | further results
1 | CO/C=C(\Oc1cc(-n2ccc(C#CC3CC3)n2)ccc1C)C(=O)OC [Compound E-1, methyl (Z)-2-[5-[3-(2-cyclopropylethynyl)pyra-zol-1-yl]-2-methyl-phenoxy]-3-methoxy-prop-2-enoate] | ≥ 80 | ≥ 80 | 158 to 162 | ≥ 80 | ≥ 80 | ≥ 80 | ≥ 80 | ≥ 80 | ≥ 80 | ≥ 80 | ≥ 80 | – | – | – | – | – | –
2 | CO/C=C(\Oc1cc(-n2ccc(C(F)(F)F)n2)c(C)cc1C)C(=O)OC [Compound E-16, methyl (Z)-2-[2,4-dimethyl-5-[3-(trifluoromethyl)pyrazol-1-yl]phenoxy]-3-methoxy-prop-2-enoate] | ≥ 80 | – | 96 to 98 | ≥ 80 | – | – | – | – | ≥ 80 | ≥ 80 | ≥ 80 | ≥ 80 | ≥ 80 | ≥ 80 | ≥ 80 | – | –
3 | CO/C=C(\Oc1cc(-n2ccc(C)n2)c(C)cc1C)C(=O)OC [Compound E-17, methyl (Z)-2-[2,4-dimethyl-5-(3-methylpyrazol-1-yl)phenoxy]-3-methoxy-prop-2-enoate] | ≥ 80 | – | 123 to 124 | ≥ 80 | – | – | – | – | ≥ 80 | ≥ 80 | ≥ 80 | – | ≥ 80 | – | ≥ 80 | – | –
4 | CO/C=C(\Oc1cc(-n2ccc(C(C)C)n2)c(Cl)cc1C)C(=O)OC [Compound E-29, methyl (Z)-2-[4-chloro-5-(3-isopropylpyrazol-1-yl)-2-methyl-phenoxy]-3-methoxy-prop-2-enoate] | ≥ 80 | – | 96 to 98 | ≥ 80 | ≥ 80 | ≥ 80 | ≥ 80 | ≥ 80 | ≥ 80 | ≥ 80 | ≥ 80 | ≥ 80 | ≥ 80 | ≥ 80 | ≥ 80 | – | –
5 | CO/C=C(\Oc1cc(-n2ccc(C)n2)c(F)cc1C)C(=O)OC [Compound E-64, methyl (Z)-2-[4-fluoro-2-methyl-5-(3-methylpyrazol-1-yl)phenoxy]-3-methoxy-prop-2-enoate] | ≥ 80 | – | 134 to 138 | ≥ 80 | ≥ 80 | – | ≥ 80 | – | ≥ 80 | – | ≥ 80 | ≥ 80 | ≥ 80 | ≥ 80 | ≥ 80 | ≥ 50 | –
6 | CO/C=C(\Oc1cc(-n2ccc(Cl)n2)ccc1Br)C(=O)OC [Compound E-85, methyl (Z)-2-[2-bromo-5-(3-chloropyrazol-1-yl)phenoxy]-3-methoxy-prop-2-enoate] | ≥ 80 | – | – | ≥ 80 | ≥ 80 | ≥ 80 | ≥ 80 | – | ≥ 80 | ≥ 80 | ≥ 80 | ≥ 80 | ≥ 80 | ≥ 80 | – | ≥ 50 | –
7 | CO/C=C(\Oc1cc(-n2ccc(C3CC3)n2)ccc1Cl)C(=O)OC [Compound E-99, methyl (Z)-2-[2-chloro-5-(3-cyclopropylpyrazol-1-yl)phenoxy]-3-methoxy-prop-2-enoate] | ≥ 80 | – | – | ≥ 80 | ≥ 80 | ≥ 80 | ≥ 80 | ≥ 80 | ≥ 80 | ≥ 80 | ≥ 80 | ≥ 80 | ≥ 80 | ≥ 80 | ≥ 80 | ≥ 50 | –
8 | CCCc1cnn(-c2ccc(C)c(O/C(=C\OC)C(=O)OC)c2)n1 [Compound F-2, methyl (Z)-3-methoxy-2-[2-methyl-5-(4-propyltriazol-2-yl)phenoxy]prop-2-enoate] | ≥ 80 | ≥ 80 | – | ≥ 80 | ≥ 80 | ≥ 80 | ≥ 80 | ≥ 80 | ≥ 80 | – | ≥ 80 | ≥ 80 | – | – | – | – | pest or weed control at 0.6 ppm (Phakopsora pachyrhizi; Phakopsora pachyrhizi (Soybean rust), 0.6 ppm): 0%; pest or weed control at 2 ppm (Phakopsora pachyrhizi; Phakopsora pachyrhizi (Soybean rust), 2 ppm): 20%; pest or weed control at 6 ppm (Phakopsora pachyrhizi; Phakopsora pachyrhizi (Soybean rust), 6 ppm): 50%; pest or weed control at 20 ppm (Phakopsora pachyrhizi; Phakopsora pachyrhizi (Soybean rust), 20 ppm): 90%; pest or weed control at 60 ppm (Phakopsora pachyrhizi; Phakopsora pachyrhizi (Soybean rust), 60 ppm): 100%; pest or weed control at 200 ppm (Phakopsora pachyrhizi; Phakopsora pachyrhizi (Soybean rust), read-out: control (%)): 100%
9 | CO/C=C(\Oc1cc(-n2ncc(C(C)C)n2)ccc1C)C(=O)OC [Compound F-4, methyl (Z)-2-[5-(4-isopropyltriazol-2-yl)-2-methyl-phenoxy]-3-methoxy-prop-2-enoate] | ≥ 80 | ≥ 80 | – | ≥ 80 | ≥ 80 | ≥ 80 | ≥ 80 | ≥ 80 | ≥ 80 | – | ≥ 80 | ≥ 80 | ≥ 80 | – | – | – | –
10 | CO/C=C(\Oc1cc(-n2nc(Br)c(Br)n2)ccc1C)C(=O)OC [Compound F-10, methyl (Z)-2-[5-(4,5-dibromotriazol-2-yl)-2-methyl-phenoxy]-3-methoxy-prop-2-enoate] | ≥ 80 | ≥ 80 | – | ≥ 80 | ≥ 80 | ≥ 80 | ≥ 80 | ≥ 80 | – | ≥ 80 | ≥ 80 | ≥ 80 | ≥ 80 | – | – | – | –
